Results reported in paper PMC6599006, “Rational design using sequence information only produces a peptide that binds to the intrinsically disordered region of p53” (Scientific Reports, 2019).
Peptide text beside a SMILES is read from it.

Key:
[1] = test system: FL-p53 binding to nspDNA (random sequence); assay: Fluorescence anisotropy titration of FL-p53 against nspDNA in the presence of peptide; type: biochemical, human
Source text: (§1) We prepared FL-p53, TetCT mutant, and CoreTet mutant as described previously. For FL-p53, the thermostable and cysteine-modified mutant of human p53 (C124A, C135V, C141V, W146Y, C182S, V203A, R209P, C229Y, H233Y, Y234F, N235K, Y236F, T253V, N268D, C275A, C277A, K292C) was used[11]. The TetCT mutant corresponds to residues 293−393 of human p53 with an additional N-terminal cysteine. The CoreTet mutant corresponds to residues 1–363 of FL-p53[12]. Expression and purification of the three mutants was conducted as previously described[11],[12]. Briefly, all mutants with a GST tag were expressed in Escherichia coli and were collected from a GST column after cleavage of the GST tag and further purified by using a heparin column. The DNA binding ability of all mutants was confirmed by titration experiments as described elsewhere[10]–[12]. […]
(§2) The fluorescence anisotropy of fluorescent CT peptide or DNA was measured at 25 °C using a fluorescence spectrometer (FP-6500, JASCO Co., Tokyo, Japan) with an automatic titrator and home-build autorotating polarizer. […] For p53 mutants, the concentration was calculated for the tetramer.

[2] = molecular target: T1, FL-p53 labeled with Atto532 sliding along nspDNA (λDNA array) (Homo sapiens, UniProt P04637, C124A/C135V/C141V/C182S/C229Y/C275A/C277A/H233Y/K292C/N235K/N268D/R209P/T253V/V203A/W146Y/Y234F/Y236F); assay: Single-molecule fluorescence measurement of 1D sliding of FL-p53 along DNA (DNA garden); type: biochemical; details: displacement analysis, time interval 165 ms; for Fraction of fast sliding mode of FL-p53: 100 mM KCl, 2 mM MgCl2, pH 7.9
T1 construct: we prepared three p53 constructs: full-length p53 (FL-p53); GST (cleaved yes); made in house; host or cells: Escherichia coli
Procedure: The 1D sliding of FL-p53 labeled with Atto532 along DNA was measured by a custom-built TIRF microscope, as described previously[11],[39]. The λDNA array tethered on the coverslip of the flow cell was constructed using microcontact printing as described previously[39]. FL-p53 was labeled with Atto532 as described elsewhere[11]. FL-p53 with Atto532 at 2–4 nM was introduced into the flow cell with the DNA array by a syringe pump and measured at a flow rate of 500 μL/min, corresponding to 90% extension of λDNA. […] The experiments were conducted immediately after the dilution of FL-p53 from the stock solution at more than 10 μM and finished within 50 min to prevent the dissociation of the tetramer[40]. The analysis was described previously[11]. For distribution analysis, the following fitting equation was used:3 P(δx)=∑i=12Ai/4πDiδtexp(−(δx+viδt)^2/4Diδt), where P(δx), δt, δx, Ai, vi, and Di are the occurrence of δx, time interval, displacement in the time interval, amplitude of the ith mode, drift velocity of the ith mode, and diffusion coefficient of the ith mode, respectively.

[3] = test system: CoreTet mutant of p53 binding to spDNA (p21); assay: Fluorescence anisotropy titration of CoreTet mutant against spDNA in the presence of DP6; type: biochemical, human; details: 600 μM DP6
Procedure: (§3) The solution used here included 100 mM KCl to mimic physiological conditions.
as §1, §2

[4] = test system: FL-p53 binding to spDNA (p21); assay: Fluorescence anisotropy titration of FL-p53 against spDNA in the presence of peptide; type: biochemical, human; details: saturated at 300 μM DP6
Source text: as §1, §2

[5] = test system: TetCT mutant of p53 binding to nspDNA (random sequence); assay: Fluorescence anisotropy titration of TetCT mutant against nspDNA in the presence of DP6; type: biochemical, human; details: at more than 150 μM DP6; 100 mM KCl
Procedure: as §3, §1, §2

[6] = molecular target: T2, CT peptide (residues 367–393 of human p53) (Homo sapiens, UniProt P04637); assay: Fluorescence anisotropy titration of peptides against FAM-labeled CT peptide of p53; type: binding; details: absence of salt; versus Wmot2, Cul7, WS100B peptides
T2 construct: CT peptide (residues 367–393 of human p53) labeled with FAM at the N-terminus; purchased Toray Research Center Inc., Tokyo, Japan; host or cells: chemical synthesis
Procedure: To test how well our method worked, we titrated the designed peptides against the CT peptide (residues 367–393) labeled with a fluorescent dye, FAM, using a fluorometer with fluorescence anisotropy[11]
The fluorescence anisotropy of fluorescent CT peptide or DNA was measured at 25 °C using a fluorescence spectrometer (FP-6500, JASCO Co., Tokyo, Japan) with an automatic titrator and home-build autorotating polarizer[11]. […] The titration curves were fitted by the following equations:1 robs=rA(cA−cAB)/cA+rABcAB/cA, 2 cAB=(cA+cB+KD)−(cA+cB+KD)^2−4cAcB/2, where robs, rA, rAB, KD, cA, and cB are the observed anisotropy, anisotropy of free molecule A, anisotropy of the complex between molecules A and B, dissociation constant, total concentration of molecule A and total concentration of molecule B, respectively. For p53 mutants, the concentration was calculated for the tetramer.

| effect on the affinity of FL-p53 for DNA ([1]; DP5, nspDNA and spDNA (Fig. S7, Table S2)) | Structure (SMILES) | increase of the KD of FL-p53 for nspDNA ([1]; at 600 μM than at 0 μM DP6) [fold] | Fraction of slow sliding mode of FL-p53 ([2]; [DP6] 300) [%] | Fraction of fast sliding mode of FL-p53 ([2]; [DP6] 300) [%] | Fraction of slow sliding mode of FL-p53 ([2]; [DP6] 600) [%] | Fraction of fast sliding mode of FL-p53 ([2]; [DP6] 600) [%] | effect on binding of the CoreTet mutant to spDNA [3] | increase of the KD of FL-p53 for spDNA [4] [fold] | anisotropy change for nspDNA on titration of TetCT mutant [5] | KD of DP6 with respect to the CT domain, times stronger than the KD of the natural peptides [6] |
| --- | --- | --- | --- | --- | --- | --- | --- | --- | --- | --- |
| did not affect the affinity of FL-p53 | NC(=O)C[C@H](NC(=O)[C@H](CC(N)=O)NC(=O)[C@H](CC(=O)O)NC(=O)[C@H](CCC(=O)O)NC(=O)[C@H](CCC(=O)O)NC(=O)[C@H](CCC(=O)O)NC(=O)[C@@H](N)CCC(=O)O)C(=O)N[C@@H](CC(=O)O)C(=O)N[C@@H](CC(=O)O)C(=O)N[C@@H](CC(=O)O)C(=O)N[C@@H](CCC(=O)O)C(=O)N[C@@H](CCC(=O)O)C(=O)N[C@@H](CCC(=O)O)C(=O)O [DP5] (H-EEEEDNNDDDEEE-OH) |  |  |  |  |  |  |  |  |  |
|  | NC(=O)C[C@H](NC(=O)[C@H](CC(N)=O)NC(=O)[C@H](CC(=O)O)NC(=O)[C@H](CCC(=O)O)NC(=O)[C@H](CCC(=O)O)NC(=O)[C@H](CCC(=O)O)NC(=O)[C@H](CCC(=O)O)NC(=O)[C@@H](N)CCC(=O)O)C(=O)N[C@@H](CC(=O)O)C(=O)N[C@@H](CC(=O)O)C(=O)N[C@@H](CC(=O)O)C(=O)N[C@@H](CCC(=O)O)C(=O)N[C@@H](CCC(=O)O)C(=O)N[C@@H](CCC(=O)O)C(=O)N[C@@H](Cc1c[nH]c2ccccc12)C(=O)N[C@@H](Cc1ccccc1)C(=O)O [DP6] | 7 | 54 ± 1 | 46 ± 2 | 31 ± 2 | 69 ± 1 | did not weaken the binding | 3 | no significant change in anisotropy | at least 12 times |
